From patent US7939639B2, “Functional role of adrenomedullin (AM) and the gene related product (PAMP) in human pathology and physiology” (The United States of America as represented by the …, priority 1995, dated 2011) come the findings set out here.

One data set deals with AM receptors. As to the kind of experiment: 125I-AM receptor binding, MCF-7. Details: species or system human. The conditions noted are these: MCF-7 as representative cancer line. As to the method:
j. Receptor Binding: Receptor binding analysis were performed as previously described (Moody, T. W., et al., Proc. Natl. Acad. Sci. U.S.A. 90:4345-4349 (1993)). Briefly, cells (5×10^4) were placed in 24-well plates coated with fibronectin (20 μg). When a monolayer is formed, the cells were washed 4 times in TIS buffer followed by incubation with receptor binding medium (TIS plus 1% BSA and 1 mg/ml bacitracin). […] After washing the cells 4 times in receptor binding buffer at 4° C., they were dissolved in 0.2 N NaOH and counted on a gamma counter.

A further data set deals with AM receptor. As to the kind of experiment: cAMP assay (RIA), MCF-7. In kind it is cell-based, human. The conditions noted are these: MCF-7. As to the method: k. cAMP Assays: Cyclic AMP was assayed by RIA using a kit obtained from New England Nuclear (Boston, Mass.). […] The supernatants were tested for cAMP using the RIA kit following the manufacturer's instructions.

For data set [1], the system named is E. coli. Description: Microdilutional timed kill assay, E. coli. The data set is classed as cell-based, Escherichia coli. The note with it: for growth inhibitory activity against E. coli, comparative: microdilution, 6 hours, FIG. 22. The method, then: (§1) Inhibition of growth of E. coli was assessed in a microdilutional timed kill assay. (See FIG. 22) Bacteria and Candida albicans were grown overnight on trypticase soy agar (TSA) and Sobouraud dextrose agar (SDA) plates, respectively, were suspended into RPMI-1640 medium (Bio-Whittaker) and adjusted to a final concentration of 8×10^3 cfu/ml in […] in plastic microdilution trays. AM-related peptides, magainins, and albumin were added in equimolar concentrations ranging from 8 μM to 300 μM. Plates were incubated at 37° C. with gentle agitation over 24 hours. At 6 hr and 24 hr time points, 10 to […] aliquots from each well were quantitatively cultured by serial 100-fold dilutions onto TSA and SDA plates.

The test system of a further data set is P. aeruginosa. As to the kind of experiment: Micro-/macrodilution timed kill assay, P. aeruginosa. The data set is classed as cell-based, Pseudomonas aeruginosa. The conditions noted are these: 24 hours exposure compared with 6 hours incubation. The method, then:
as §1, with “AM-related peptides, magainins, and albumin were added in equimolar concentrations ranging from 8 μM to 300 μM.” left out
(§2) Data were compiled from six experiments. Macrodilution assays were performed in 12×75 mm borosilicate glass tubes. Organisms were grown and harvested, as described in Roilides, E., et al., J Infect Dis. 163:579 (1991), and adjusted to a final inoculum concentration of 8×10^3 cfu/ml in 400 μl. […] Tubes were incubated at 37° C. with gentle agitation over 24 hours. At 6 and 24 hour time points, 100 μl aliquots from each tube were quantitatively cultured by serial 100-fold dilutions onto TSA and SDA plates.

Another data set concerns C. albicans. As to the kind of experiment: Micro-/macrodilutional assay, C. albicans. The data set is classed as cell-based, Candida albicans. As to the method:
as §1, with “AM-related peptides, magainins, and albumin were added in equimolar concentrations ranging from 8 μM to 300 μM.” left out
as §2

For the next data set, the system named is S. aureus. As to the kind of experiment: Micro-/macrodilutional assays, S. aureus. In kind it is cell-based, Staphylococcus aureus. The conditions noted are these: microdilutional or macrodilutional assays. The method, then: as §1, with “AM-related peptides, magainins, and albumin were added in equimolar concentrations ranging from 8 μM to 300 μM.” left out
as §2
For orientation: Dilution methods test growth across graded concentrations, often in twofold steps.

The test system of data set [2] is E. coli. Description: Macrodilution assay, E. coli. The data set is classed as cell-based, Escherichia coli. The conditions noted are these: for antimicrobial activity, macrodilution, 6 hours: 6 hours incubation. As to the method:
as §2

A short description of the next data set: Isoelectric point. In kind it is physicochemical.
The subject of a further data set is rat mast cells. The note with it: compared with magainin-2 / AM.
In data set [3] the test system is E. coli, P. aeruginosa, C. albicans, S. aureus. Description: Antimicrobial dilution assays against bacterial and fungal pathogens. In kind it is cell-based. The note with it: microdilutional assay. The method, then: In order to assess the antimicrobial activity of AM and its gene related peptides, both microdilution and macrodilution assays were performed against Escherichia coli (E. coli), Staphylococcus aureus (S. aureus), Pseudomonas aeruginosa (P. aeruginosa) and Candida albicans (C. albicans). A germination assay was also performed in order to further assess anti-candidal activity (Ghannoum, M. A. and Radwan, S. S., Candida Adherence to Epithelial Cells. CRC Press; Boca Raton, Fla. 1990 pp. 72-104).
as §1
The antimicrobial activity of AM and PAMP was determined in a macrodilution assay after 6 hours of incubation of E. coli. […] Data were compiled from six experiments. Macrodilution assays were performed in 12×75 mm borosilicate glass tubes. Organisms were grown and harvested, as described in Roilides, E., et al., J Infect Dis. 163:579 (1991), and adjusted to a final inoculum concentration of 8×10^3 cfu/ml in 400 μl. AM-related peptides, magainins, and albumin were added in equimolar concentrations ranging from 8 μM to 300 μM. Tubes were incubated at 37° C. with gentle agitation over 24 hours. At 6 and 24 hour time points, 100 μl aliquots from each tube were quantitatively cultured by serial 100-fold dilutions onto TSA and SDA plates.

The subject of another data set is RINm cells. Description: 125I-AM binding to RINm cells. The conditions noted are these: 0.2 nM per 5×10^5 cells. The source says: (§3) A similar mechanism has been described for amylin (R. A. Pittner et al., J. Cell. Biochem. 55S, 19 (1994)).
The subject of another data set is NCI-H1264. As to the kind of experiment: 125I-AM binding to NCI-H1264 cells. Set-up: species or system human. The conditions noted are these: 0.2 nM per 5×10^5 cells; NCI-H1264 positive control.
Description: as §3

“Also recorded” adds a separate entry of the source. Like-named read-outs stand apart in the source and are kept apart here. Ends that are not written are not given here.

As to “ARLDVASEFRKKWNKWALSR-NH2 [PAMP-20, ARLDVASEFRKKWNKWALSR-NH2]”, in the data set on AM receptors, the “competition for 125I-AM binding” value is on record as “not competitively blocked”. The “effect on cAMP” value with AM receptor is recorded as “no effect”. Besides, in the data set on E. coli [1] (after 6 hours of incubation), the “activity against E. coli” value is “activity”. In the data set on E. coli [1], the “growth inhibitory activity against E. coli, comparative” value was “higher growth inhibitory activity than albumin”. Further, in the data set with P. aeruginosa, the “antimicrobial activity against P. aeruginosa, 24 hours versus 6 hours” value is recorded as “greater antimicrobial activity”. Moreover, the “antimicrobial effect against C. albicans” value in the data set with C. albicans is on record as 79.7%±2.4. The “activity against C. albicans” value with C. albicans (after 6 hours of incubation) is given as “activity”. Besides, in the data set with S. aureus, the “growth suppressive activity against S. aureus” value is recorded as “ineffective; also recorded: no apparent growth suppressive activity”. For the same substance, the “antimicrobial activity, macrodilution, 6 hours” value in the data set on E. coli [2] (E. coli) is given as “greater activity”. Further, the isoelectric point in the data set “Isoelectric point” was found to be 10.1; in the data set “Isoelectric point” (listed as PAMP), 11.1. Further, the “relative potency in inducing histamine release” value with rat mast cells was “twenty times more potent”.

As for “Y-G-G-H-Q-I-Y-Q-F-T-D-K-D-NH2 (YGGHQIYQFTDKD-NH2) [PO71, ID; NO]”, the “activity against these pathogens” value in data set [3] is given as “little or no activity”.

For the substance Magainin [reference compound], the “growth inhibitory activity against E. coli, comparative” value in the data set with E. coli [1] is “greater inhibitory activity”. In the data set with C. albicans, the “potency against C. albicans, comparative” value was “more potent than AM and PAMP”. Besides, the “antimicrobial activity, macrodilution, 6 hours” value in the data set on E. coli [2] (E. coli) is on record as “moderate activity”. For the same substance, the “antimicrobial activity, macrodilution, 24 hours” value in the data set on E. coli [2] (E. coli, 24 hours incubation) is “significantly greater in antimicrobial activity than either AM or PAMP; also recorded: more potent than either AM”. Further, in the data set with E. coli [2] (macrodilution), the “optical clarity of bacterial suspension” value was “optically clear suspension of bacteria”.

“^125I-AM: iodinated AM ligand (Phoenix Pharmaceuticals)”: the results for the “binding of 125I-AM” value with RINm cells and with NCI-H1264 were 25 cpm and 2265 cpm, respectively.

Regarding “Y-Y-W-N-K-W-A-L-S-R-NH2 (YYWNKWALSR-NH2) [PO70, ID; NO]”, in data set [3], the “activity against these pathogens” value is given as “little or no activity”.

With “TVQKLAHQIYQFTDKDKDNVAPRSKISPQGY-NH2 [PO72]”, in the data set on AM receptors, the “competition for 125I-AM binding” value was “not competitively blocked”. For the same substance, the “effect on cAMP” value in the data set on AM receptor was “no effect”. Besides, the “activity against these pathogens” value in data set [3] is “little or no activity”.
